# Experiments:
# duck salad = assay: Test C flood test plant response rating 0 to 100; assay type: in vivo, Heteranthera limosa; conditions: for Plant response rating Duck salad: flood test species listed under POSTEMERGENCE, 0 to 100 scale
# In short: (§1)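 Compounds in non-phytotoxic solvent applied preemergence to sandy loam one day after planting, postemergence at the 1–4 leaf stage, or to ~2.5 cm floodwater over silt loam.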
# sorghum [1] = assay: Test B preemergence/postemergence greenhouse plant response rating 0 to 10; assay type: in vivo, Sorghum bicolor; conditions: 0 to 10 scale
# In short: (§2)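 Planted seeds are treated preemergence with compound dissolved in a non-phytotoxic solvent, while postemergence applications go onto plants of two to eighteen cm. Plants stay in the greenhouse twelve to sixteen days and are then rated visually relative to controls.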
# cheatgrass = assay: as above; assay type: in vivo, Bromus secalinus; conditions: for Plant response rating, Cheatgrass: 0 to 10 scale
# In short: as §2
# barley [2] = assay: as above; assay type: in vivo, Hordeum vulgare; conditions: for Plant response rating, Barley: 0 to 10 scale
# In short: as §2
# wheat = assay: as above; assay type: in vivo, Triticum aestivum; conditions: 0 to 10 scale
# In short: as §2
# blackgrass [3] = assay: as above; assay type: in vivo, Alopecurus myosuroides; conditions: for Plant response rating, Blackgrass: 0 to 10 scale
# In short: as §2
# barley [4] = assay: Test C preemergence/postemergence greenhouse plant response rating 0 to 100; assay type: in vivo, Hordeum vulgare; conditions: POSTEMERGENCE; for Plant response rating Barley Igri: 0 to 100 scale
# In short: as §1
# bedstraw [5] = assay: Test B preemergence/postemergence greenhouse plant response rating 0 to 10; assay type: in vivo, Galium aparine; conditions: for Plant response rating, Bedstraw: 0 to 10 scale
# In short: as §2
# sugar beet = assay: Test C preemergence/postemergence greenhouse plant response rating 0 to 100; assay type: in vivo, Beta vulgaris; conditions: POSTEMERGENCE; for Plant response rating, Sugar beet: 0 to 100 scale
# In short: as §1
# wild buckwheat = assay: as above; assay type: in vivo, Polygonum convolvulus; conditions: POSTEMERGENCE; for Plant response rating, Wild buckwheat: 0 to 100 scale
# In short: as §1
# bedstraw [6] = assay: as above; assay type: in vivo, Galium aparine; conditions: POSTEMERGENCE; for Plant response rating, Bedstraw: 0 to 100 scale
# In short: as §1
# pigweed = assay: as above; assay type: in vivo, Amaranthusretroflexus; conditions: POSTEMERGENCE; for Plant response rating Pigweed: 0 to 100 scale
# In short: as §1
# cotton = assay: Test B preemergence/postemergence greenhouse plant response rating 0 to 10; assay type: in vivo, Gossypium hirsutum; conditions: for Plant response rating, Cotton: 0 to 10 scale
# In short: as §2
# rice = assay: as above; assay type: in vivo, Oryza sativa; conditions: 0 to 10 scale
# In short: as §2
# sorghum [7] = assay: Test C preemergence/postemergence greenhouse plant response rating 0 to 100; assay type: in vivo, Sorghum bicolor; conditions: POSTEMERGENCE; for Plant response rating, Sorghum: 0 to 100 scale
# In short: as §1
# blackgrass [8] = assay: as above; assay type: in vivo, Alopecurus myosuroides; conditions: POSTEMERGENCE; for Plant response rating, Blackgrass: 0 to 100 scale
# In short: as §1
# rape = assay: Test B preemergence/postemergence greenhouse plant response rating 0 to 10; assay type: in vivo, Brassica napus; conditions: 0 to 10 scale
# In short: as §2
# ryegrass = assay: Test C preemergence/postemergence greenhouse plant response rating 0 to 100; assay type: in vivo, Lolium multiflorum; conditions: POSTEMERGENCE; for Plant response rating Ryegrass: 0 to 100 scale
# In short: as §1
compound,measurement,setting,value
CC(C)COc1cc(-c2nn3c(c2Cl)CCCC3)c(F)cc1Cl [Compound 30],"Plant response rating (0 to 100), Duck salad","duck salad; POSTEMERGENCE section, flood test, Rate 4 g/ha",0
same,"Plant response rating (0 to 100), Duck salad","duck salad; Rate 16 g/ha, under POSTEMERGENCE head (flood test species)",30
same,Plant response rating Duck salad,duck salad; 62 g/ha,40
same,Plant response rating Duck salad,duck salad; 250 g/ha,60
same,"Plant response rating, Sorghum","sorghum [1]; POSTEMERGENCE, Rate 50 g/ha",4
same,"Plant response rating, Sorghum","sorghum [1]; PREEMERGENCE, Rate 50 g/ha",0
same,"Plant response rating, Sorghum","sorghum [1]; Rate 200 g/ha, POSTEMERGENCE",6
same,"Plant response rating, Sorghum","sorghum [1]; Rate 200 g/ha, PREEMERGENCE",0
same,"Plant response rating (0 to 10 scale), Cheatgrass","cheatgrass; POSTEMERGENCE, Rate 50 g/ha",6
same,"Plant response rating, Cheatgrass","cheatgrass; POSTEMERGENCE, Rate 200 g/ha",7
same,"Plant response rating, Cheatgrass","cheatgrass; PREEMERGENCE, Rate 50 g/ha",0
same,"Plant response rating, Cheatgrass","cheatgrass; Rate 200 g/ha, PREEMERGENCE",4
same,"Plant response rating (0 to 10 scale), Barley","barley [2]; POSTEMERGENCE, Rate 50 g/ha",5
same,"Plant response rating, Barley","barley [2]; POSTEMERGENCE, Rate 200 g/ha",6
same,"Plant response rating, Barley","barley [2]; PREEMERGENCE, Rate 50 g/ha",0
same,"Plant response rating, Barley","barley [2]; Rate 200 g/ha, PREEMERGENCE",2
same,"Plant response rating, Wheat","wheat; POSTEMERGENCE, Rate 50 g/ha",4
same,"Plant response rating, Wheat","wheat; PREEMERGENCE, Rate 50 g/ha",0
same,"Plant response rating, Wheat","wheat; Rate 200 g/ha, POSTEMERGENCE",5
same,"Plant response rating, Wheat","wheat; Rate 200 g/ha, PREEMERGENCE",2
same,"Plant response rating (0 to 10 scale), Blackgrass","blackgrass [3]; POSTEMERGENCE, Rate 50 g/ha",5
same,"Plant response rating, Blackgrass","blackgrass [3]; POSTEMERGENCE, Rate 200 g/ha",5
same,"Plant response rating, Blackgrass","blackgrass [3]; PREEMERGENCE, Rate 50 g/ha",0
same,"Plant response rating, Blackgrass","blackgrass [3]; Rate 200 g/ha, PREEMERGENCE",0
same,Plant response rating Barley Igri,barley [4]; 62 g/ha,50
same,Plant response rating Barley Igri,barley [4]; 250 g/ha,70
same,"Plant response rating (0 to 100), Barley Igri",barley [4]; Rate 4 g/ha,30
same,"Plant response rating (0 to 100), Barley Igri",barley [4]; Rate 16 g/ha,30
same,"Plant response rating (0 to 10 scale), Bedstraw","bedstraw [5]; POSTEMERGENCE, Rate 50 g/ha",8
same,"Plant response rating, Bedstraw","bedstraw [5]; POSTEMERGENCE, Rate 200 g/ha",10
same,"Plant response rating, Bedstraw","bedstraw [5]; PREEMERGENCE, Rate 50 g/ha",0
same,"Plant response rating, Bedstraw","bedstraw [5]; Rate 200 g/ha, PREEMERGENCE",9
same,"Plant response rating, Sugar beet",sugar beet; 62 g/ha,100
same,"Plant response rating, Sugar beet",sugar beet; 250 g/ha,100
same,"Plant response rating (0 to 100), Sugar beet",sugar beet; Rate 4 g/ha,80
same,"Plant response rating (0 to 100), Sugar beet",sugar beet; Rate 16 g/ha,100
same,"Plant response rating, Wild buckwheat",wild buckwheat; 62 g/ha,80
same,"Plant response rating, Wild buckwheat",wild buckwheat; 250 g/ha,100
same,"Plant response rating (0 to 100), Wild buckwheat",wild buckwheat; Rate 4 g/ha,50
same,"Plant response rating (0 to 100), Wild buckwheat",wild buckwheat; Rate 16 g/ha,70
same,"Plant response rating, Bedstraw",bedstraw [6]; 62 g/ha,100
same,"Plant response rating, Bedstraw",bedstraw [6]; 250 g/ha,100
same,"Plant response rating (0 to 100), Bedstraw",bedstraw [6]; Rate 4 g/ha,50
same,"Plant response rating (0 to 100), Bedstraw",bedstraw [6]; Rate 16 g/ha,70
same,Plant response rating Pigweed,pigweed; 62 g/ha,100
same,Plant response rating Pigweed,pigweed; 250 g/ha,100
same,"Plant response rating (0 to 100), Pigweed",pigweed; Rate 4 g/ha,100
same,"Plant response rating (0 to 100), Pigweed",pigweed; Rate 16 g/ha,100
same,"Plant response rating (0 to 10 scale), Cotton","cotton; POSTEMERGENCE, Rate 50 g/ha",10
same,"Plant response rating, Cotton","cotton; POSTEMERGENCE, Rate 200 g/ha",10
same,"Plant response rating, Cotton","cotton; PREEMERGENCE, Rate 50 g/ha",2
same,"Plant response rating, Cotton","cotton; Rate 200 g/ha, PREEMERGENCE",6
same,"Plant response rating, Rice","rice; POSTEMERGENCE, Rate 50 g/ha",5
same,"Plant response rating, Rice","rice; PREEMERGENCE, Rate 50 g/ha",0
same,"Plant response rating, Rice","rice; Rate 200 g/ha, POSTEMERGENCE",5
same,"Plant response rating, Rice","rice; Rate 200 g/ha, PREEMERGENCE",2
same,"Plant response rating, Sorghum",sorghum [7]; 62 g/ha,20
same,"Plant response rating, Sorghum",sorghum [7]; 250 g/ha,40
same,"Plant response rating (0 to 100), Sorghum",sorghum [7]; Rate 4 g/ha,0
same,"Plant response rating (0 to 100), Sorghum",sorghum [7]; Rate 16 g/ha,0
same,"Plant response rating, Blackgrass",blackgrass [8]; 62 g/ha,60
same,"Plant response rating, Blackgrass",blackgrass [8]; 250 g/ha,80
same,"Plant response rating (0 to 100), Blackgrass",blackgrass [8]; Rate 4 g/ha,10
same,"Plant response rating (0 to 100), Blackgrass",blackgrass [8]; Rate 16 g/ha,20
same,"Plant response rating, Rape","rape; POSTEMERGENCE, Rate 50 g/ha",5
same,"Plant response rating, Rape","rape; PREEMERGENCE, Rate 50 g/ha",0
same,"Plant response rating, Rape","rape; Rate 200 g/ha, POSTEMERGENCE",9
same,"Plant response rating, Rape","rape; Rate 200 g/ha, PREEMERGENCE",3
same,Plant response rating Ryegrass,ryegrass; 62 g/ha,60
same,Plant response rating Ryegrass,ryegrass; 250 g/ha,80
same,"Plant response rating (0 to 100), Ryegrass",ryegrass; Rate 4 g/ha,20
same,"Plant response rating (0 to 100), Ryegrass",ryegrass; Rate 16 g/ha,40

# Source: US6358885B1, “Substituted phenylheterocyclic herbicides” (Mississippi State University, priority 1992, dated 2002)
